Laboratory results taken from US8119650B2, “Aminophenyl derivatives as novel inhibitors of histone deacetylase” (Janssen Pharmaceutica N.V., priority 2006, dated 2012).
Converted amounts (≈) assume the structure as drawn. Like-named read-outs stand apart in the source and are kept apart here.

What was measured:
[1] = test system: A2780 ovarian carcinoma cells; assay: Antiproliferative activity on A2780 cells (MTT); type: cell-based; settings: Homo sapiens, 96 h, four days of incubation, read-out: Cellular activity pIC50 C.2 (converted)
Procedure: Cellular activity of the compounds of formula (I) was determined on A2780 tumour cells using a […] assay for cell toxicity or survival (Mosmann Tim, Journal of Immunological Methods 65: 55-63, 1983)(see example C.2).
All compounds tested were dissolved in DMSO and further dilutions were made in culture medium. Final DMSO concentrations never exceeded 0.1% (v/v) in cell proliferation assays. Controls contained A2780 cells and DMSO without compound and blanks contained DMSO but no cells. MTT was dissolved at 5 mg/ml in PBS. A glycine buffer comprised of 0.1 M glycine and 0.1 M NaCl buffered to pH 10.5 with NaOH (1 N) was prepared (all reagents were from Merck).
The human A2780 ovarian carcinoma cells (a kind gift from Dr. T. C. Hamilton [Fox Chase Cancer Centre, Pennsylvania, USA]) were cultured in RPMI 1640 medium supplemented with 2 mM L-glutamine, 50 μg/ml gentamicin and 10% fetal calf serum. Cells were routinely kept as monolayer cultures at 37° C. in a humidified 5% CO2 atmosphere. Cells were passaged once a week using a trypsin/EDTA solution at a split ratio of 1:40. All media and supplements were obtained from Life Technologies. Cells were free of mycoplasma contamination as determined using the Gen-Probe Mycoplasma Tissue Culture kit (supplier: BioMérieux).
Cells were seeded in NUNC™ 96-well culture plates (Supplier: Life Technologies) and allowed to adhere to the plastic overnight. Densities used for plating were 1500 cells per well in a total volume of 200 μl medium. After cell adhesion to the plates, medium was changed and drugs and/or solvents were added to a final volume of 200 μL Following four days of incubation, medium was replaced by 200 μl fresh medium and cell density and viability was assessed using an MTT-based assay. […] For each sample, the mean value for cell growth (in absorbance units) was expressed as a percentage of the mean value for cell growth of the control. […] Herein the effects of test compounds are expressed as pIC50 (the negative log value of the IC50-value) (see Table F-2).

[2] = target: histone deacetylase (HeLa nuclear extracts); assay: In vitro assay for inhibition of histone deacetylase with fluorescent-labelled substrate; type: biochemical; settings: Fluor de Lys substrate
Description: The in vitro assay for inhibition of histone deacetylase (see example C. 1) measures the inhibition of HDAC enzymatic activity obtained with the compounds of formula (I).
The HDAC Fluorescent Activity Assay/Drug Discovery Kit of Biomol (cat.No: AK-500-0001) was used. The HDAC Fluorescent Activity Assay is based on the Fluor de Lys (Fluorogenic Histone deAcetylase Lysyl) substrate and developer combination. The Fluor de Lys substrate, comprises an acetylated lysine side chain. Deacetylation of the substrate sensitizes the substrate so that, in the second step, treatment with the Fluor de Lys developer produces a fluorophore.
HeLa nuclear extracts (supplier: Biomol) were incubated at 60 μg/ml with 75 μM of substrate. The Fluor de Lys substrate was added in a buffer containing 25 mM Tris, 137 mM NaCl, 2.7 mM KCl and 1 mM MgCl2.6H2O at pH 7.4. After 30 min, 1 volume of the developer was added. The fluorophore was excited with 355 nm light and the emitted light (450 nm) was be detected on a fluorometric plate reader.
For each experiment, controls (containing HeLa nuclear extract and buffer), a blank incubation (containing buffer but no HeLa nuclear extract) and samples (containing compound dissolved in DMSO and further diluted in buffer and HeLa nuclear extract) were run in parallel. In first instance, compounds were tested at a concentration of 10^−5M. […] All sample were tested 4 times. In each test the blank value was substracted from both the control and the sample values. The control sample represented 100% of substrate deactylation. For each sample the fluorescence was expressed as a percentage of the mean value of the controls. […] Herein the effects of test compounds are expressed as pIC50 (the negative log value of the IC50-value) (see Table F-2).

[3] = Solubility at pH 2.3 (chemiluminescent nitrogen detector); type: physicochemical; settings: pH 2.3, aqueous buffer; read-out: Solubility C.3.b. pH = 2.3
Procedure: The solubility of a compound measures the ability of a compound to stay in solution. In a first method the ability of a compound to stay in aqueous solution upon dilution (see example C.3.a) is measured. DMSO-stock solutions are diluted with a single aqueous buffer solvent in different consecutive steps. In this method, mixtures are then scanned in the BD Gentest Solubility Scanner for the occurrence of precipitation. In a second method the solubility of a compound at different pH's can be measured with the use of a Chemiluminescent Nitrogen Detector (see example C.3.b).
The solubility of a compound, at pH 2.3, can also be measured with the use of a chemiluminescent nitrogen detector (see Table F-2).

| IC50 [1] [nM] | Enzymatic activity pIC50 C.1 [2] | SMILES | also measured |
| --- | --- | --- | --- |
|  |  | COc1cc(N)c(Cl)cc1C(=O)NC1CCN(CCCOc2ccc(F)cc2)CC1OC (centres unmarked) [Cisapride] | % metabolism (human, 15 min, 5 μM): 45% |
| 3160 | <6 | CCCn1cc(CCNCC2CCN(c3ncc(C(=O)Nc4ccccc4N)cn3)CC2)c2cc(Cl)ccc21 [Compound 1] |  |
| 100 | 4.8 | Cn1cc(CNCC2CCN(c3ncc(C(=O)Nc4ccccc4N)cn3)CC2)c2ccccc21 [Compound 2] | solubility [3]: 3700 µg/mL (≈ 7.88 mM) |
| 1580 | <6 | CCCn1cc(CNCC2CCN(c3ncc(C(=O)Nc4ccccc4N)cn3)CC2)c2cc(F)ccc21 [Compound 3] |  |
|  | <6 | Nc1ccccc1NC(=O)c1cnc(N2CCC(CNCCc3c[nH]c4ccccc34)CC2)nc1 [Compound 4] |  |
|  | <6 | CS(=O)(=O)N(CCc1c[nH]c2ccccc12)CC1CCN(c2ncc(C(=O)Nc3ccccc3N)cn2)CC1 [Compound 5] |  |
|  |  | CCCO [propanol] | % metabolism (15 min incubation with microsomes, compound 5 μM): 25% |
